The values below come from PubChem BioAssay AID493102 (Broad Institute, 2011).

In this experiment the test system is SK-MEL-5 TRPM1-promoter luciferase reporter, 24 h. Nature of the experiment: reducers of TRPM1 reporter luminescence, concentration series – cell-based, SK-MEL-5, cherry-picked, set 4, MITF inhibitor project, dose response (AID 493102).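 Also: actives lower the luciferase signal so the potency reflects inhibition of reporter expression.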

Each structure is given as a SMILES string.

In the case of `O=C(c1ccccc1)c1cc(Cl)ccc1N1C(=O)C=CC1=O`, the AC50 is 11.9 µM.

In the case of `N#Cc1c(NC(=O)CSc2ncn[nH]2)sc2c1CCCC2`, the AC50 is 0.599 µM. The value for `CCn1c(/C=C/N(C)c2ccccc2)[n+](CC)c2ccc(Cl)cc21` was 6.86 µM; that for `Oc1c(Cl)cc(Cl)cc1/C=N/Nc1ncc(Br)cn1` was 7.84 µM; that for `COc1ccc(C(=O)NC(=O)Nc2cc(C)ccn2)cc1` was 4.96 µM.

For `CCCN(CCC)C1=CC(=[N+]2CCCC2)CC(C)(C)C1`, the AC50 is 2.02 µM.

`COc1ccc(NC(C)C(=O)N/N=C/c2ccc([N+](=O)[O-])s2)cc1` (configuration not stated): the AC50 is 15.8 µM. As for `O=C1NC(=O)C(=Cc2ccc(-c3ccc(Cl)cc3)o2)C(=O)N1`, the figure is 9.2 µM; as for `C/C(=N\NC(=O)C1COc2ccccc2O1)c1ccccn1` (configuration not stated), 4.49 µM; as for `O=C(Nc1ccc(S(=O)(=O)NC2=NCCCCC2)cc1)c1ccc([N+](=O)[O-])s1`, 5.11 µM. As for `COc1ccc(C(=O)/C=C/C(=O)N(CC(=O)NC2CCCCC2)Cc2ccc(F)cc2)c(O)c1`, the figure is 5.45 µM; as for `O=C(COC(=O)CCN1C(=O)/C(=C\C=C\c2ccccc2)SC1=S)Nc1cc(F)ccc1F`, 7.49 µM. The value for `Cc1c(C#N)c(NC(=O)CCl)n(Cc2ccc(F)cc2)c1C` was 7.16 µM. Consider `Cc1cc(C)cc(OCC(=O)N/N=C/c2ccc([N+](=O)[O-])o2)c1`, for which the AC50 is 7.12 µM. As for `C#CC(=O)N(c1ccc(OC)cc1OC)C(C(=O)NC1CCCC1)c1cccs1` (configuration not stated), the figure is 4.73 µM; as for `COc1cccc(/C=N/Nc2ccc(C(=O)O)cc2)c1O`, 0.333 µM; as for `Cc1ccc(Cn2c(=N)n(CC(=O)c3ccc([N+](=O)[O-])cc3)c3ccccc32)cc1`, 6.42 µM. The value for `COc1ccc(-c2cc3c(nn2)-c2ccccc2C3=O)cc1` was 4.22 µM.

Regarding `N=c1n(CC(=O)c2ccc([N+](=O)[O-])cc2)c2ccccc2n1Cc1ccccc1`, the AC50 is 4.83 µM. In the case of `C=C1C(=O)O[C@@]23[C@H]1CC[C@@H](C)[C@@H]2CC[C@@]1(C)O[C@@H]31`, the AC50 was 5.22 µM.

As to `Cc1ccn2c(Nc3ccccc3)c(-c3ccccn3)nc2c1`, the AC50 is 9.31 µM.

With `O=S1(=O)CCC(NC(=S)SCc2ccccc2Br)C1` (configuration not stated), the AC50 was 25.6 µM. As for `CCN(CC)CCn1nc2c3c(cccc3c1=O)-c1ccccc1-2`, the AC50 is 5.92 µM. As for `O=C(O)/C=C/C(=O)c1ccc2c(c1)CCc1ccccc1-2`, the figure is 15 µM; as for `COc1ccc(Br)cc1/C=C/C(=O)c1ccc(NC(C)=O)cc1`, 4.63 µM.

As for `Cn1cccc1-c1cc(C(=O)N/N=C/c2cc(Br)ccc2O)[nH]n1`, the AC50 was 5.25 µM.

In the case of `Cn1c(/C=C/c2cccc([N+](=O)[O-])c2)c([N+](=O)[O-])c(=O)n(C)c1=O`, the AC50 was 27.8 µM. The value for `O=C1C(Cl)=C(Nc2ccccc2)C(=O)c2ccccc21` was 2.88 µM.

Consider `Cn1nnnc1Sc1ncnc2scc(-c3ccc[nH]3)c12`, for which the AC50 was 7.32 µM. The value for `CC(C)(C)c1ccc(-c2cn(-c3ccc(Br)cc3)c3[n+]2CCCS3)cc1` was 3.2 µM; that for `c1ccc(C[n+]2cccc3c4ccccc4ccc32)cc1` was 3.41 µM. Turning to `CN(c1ccc2nc3ccccc3c(=O)n2n1)C1CCCCC1`, the AC50 is 1.29 µM.

The term AC50 denotes the midpoint of the concentration-response curve, whichever way the signal moves.
